Experimental data from patent publication US20210330611A1, “THERAPY FOR NEUROLOGICAL DISEASES/DISORDERS” (priority 2020, published 2021).
Where a name gives a salt, the structure may show the parent alone. Read-outs that look alike come from different tables or passages of the source.

Key:
[1] = system: fibrin- and LPS-induced microglia activation; assay: cells; format: cell-based, rat
[2] = system: LPS-induced microglia activation; assay: Image-based assay of LPS-induced microglia activation (HTS and dose response); format: cell-based, rat
primary rat microglia [3] = system: primary rat microglia;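 as to Fibrin % cell toxicity: share of dead cells sized under 150 µm2 at 10 µM in fibrin-stimulated microglia HTS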
[4] = system: fibrin-induced microglia activation; assay: Image-based assay of fibrin-induced microglia activation (HTS and dose response); format: cell-based, rat; details: for inhibition at 10 µM: Rattus norvegicus, Microglia, read-out: Fibrin % inhibition
primary rat microglia [5] = system: primary rat microglia; remark: listed apart in the source;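 as to Fibrin % cell toxicity: share of dead cells sized under 150 µm2 at 10 µM in fibrin-stimulated microglia HTS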
[6] = HTS of 1907 compounds, quadrant by fibrin and LPS inhibition
[7] = Rattus norvegicus, Microglia, primary microglia HTS, 10 μM, LPS-stimulated, cell size >800 μm^2 as marker of activation; read-out: LPS % inhibition
[8] = primary microglia HTS, 10 μM, fibrin-stimulated, cell size >800 μm^2 as marker of activation
[9] = Rattus norvegicus, Microglia, read-out: LPS % inhibition
[10] = quadrant by fibrin and LPS inhibition in HTS of 1907 compounds
[11] = Rattus norvegicus, Microglia, 48 h, read-out: LPS % inhibition
[12] = Rattus norvegicus, Microglia, primary microglia HTS, LPS stimulation, compounds at 10 μM; read-out: LPS % inhibition
[13] = primary microglia HTS, fibrin stimulation, compounds at 10 μM

Row | SMILES | Fibrin % cell toxicity (primary rat microglia [3]; rat) [%] | LPS % cell toxicity (primary rat microglia [5]; rat) [%] | Quadrant (FIG. 5b) [1] | inhibition at 10 µM [4] [%] | further results
1 | Cc1c(Cl)cccc1Nc1ccccc1C(=O)O [Tolfenamic Acid] | 1 | 1 | – | – | Quadrant (FIG. 5b) [1, 6]: Q4; inhibition at 10 µM [2, 7]: 36%; inhibition at 10 µM [4, 8]: 3%
2 | Nc1ccn([C@H]2CC[C@@H](CO)O2)c(=O)n1 [Zalcitabine] | 0 | 0 | – | – | Quadrant (FIG. 5b) [1, 6]: Q4; inhibition at 10 µM [2, 7]: 11%; inhibition at 10 µM [4, 8]: -10%
3 | c1ccc(C2CN3CCSC3=N2)cc1 (stereo not shown) [Tetramizole Hydrochloride] | 8 | 5 | Q2 | 107 | inhibition at 10 µM [2, 9]: 112%
4 | O=C(OCC(O)CO)c1ccccc1Nc1ccnc2cc(Cl)ccc12 (stereo not shown) [Glafenine] | 1 | 0 | – | – | Quadrant (FIG. 5b) [1, 10]: Q4; inhibition at 10 µM ([2]; Rattus norvegicus, Microglia, 48 h, primary microglia HTS, LPS stimulation, activation = cell size >800 μm2; read-out: LPS % inhibition): 18%; inhibition at 10 µM ([4]; primary microglia HTS, fibrin stimulation, activation = cell size >800 μm2): 8%
5 | O=C1CC2(CCCC2)CC(=O)N1CCCCN1CCN(c2ncccn2)CC1 [Buspirone] | 0 | 0 | Q4 | -13 | inhibition at 10 µM [2, 9]: 8%
6 | NC1=NCC2c3ccccc3Cc3ccccc3N12 (stereo not shown) [Epinastine] | 1 | 0 | Q4 | -38 | inhibition at 10 µM [2, 9]: -15%
7 | Cc1ccccc1OCC(O)CO (stereo not shown) [Mephenesin] | 0 | 0 | – | – | Quadrant (FIG. 5b) [1, 10]: Q4; inhibition at 10 µM ([2]; Rattus norvegicus, Microglia, 48 h, primary microglia HTS, LPS stimulation; increased cell size (>800 μm^2) as marker of activation; read-out: LPS % inhibition): 13%; inhibition at 10 µM ([4]; primary microglia HTS, fibrin stimulation, increased cell size (>800 μm^2) as marker of activation): 14%
8 | O=C(C1CCCCC1)N1CC(=O)N2CCc3ccccc3C2C1 (stereo not shown) [Praziquantel] | 1 | 0 | – | – | Quadrant (FIG. 5b) ([1]; classification by fibrin and LPS inhibition in HTS): Q4; inhibition at 10 µM ([2]; Rattus norvegicus, Microglia, 48 h; read-out: LPS % inhibition): 21%; inhibition at 10 µM ([4]; primary microglia HTS, fibrin stimulation, cell size >800 μm2 as marker of activation): -3%
9 | CCCN[C@H]1CCc2nc(N)sc2C1 [Pramipexole] | 1 | 0 | Q4 | -19 | inhibition at 10 µM [2, 11]: 1%
10 | Nc1c2c(nc3ccccc13)CCCC2 [Tacrine] | 1 | 0 | Q4 | -2 | inhibition at 10 µM [2, 9]: 5%
11 | CO/N=C(\C(=O)N[C@@H]1C(=O)N2C(C(=O)O)=C(COC(N)=O)CS[C@H]12)c1ccco1 [Cefuroxime] | 1 | 0 | – | – | Quadrant (FIG. 5b) ([1]; primary HTS, 10 μM): Q4; LPS % inhibition ([2]; primary HTS, 10 μM, LPS-stimulated primary microglia): 2%; Fibrin % inhibition ([4]; primary HTS, 10 μM, fibrin-stimulated primary microglia): 16%
12 | Cc1c(O)c(=O)ccn1C [Deferiprone] | 1 | 0 | – | – | Quadrant (FIG. 5b) ([1]; classification by fibrin and LPS inhibition, HTS at 10 μM): Q4; inhibition at 10 µM [2, 12]: 18%; inhibition at 10 µM [4, 13]: 31%
13 | CC(O)C(=O)O (stereo not shown) [Lactic Acid] | 1 | 1 | Q4 | 0 | inhibition at 10 µM [2, 11]: 14%
14 | CC[C@H]1OC(=O)[C@H](C)[C@@H](O[C@H]2C[C@@](C)(OC)[C@@H](O)[C@H](C)O2)[C@H](C)[C@@H](O[C@@H]2O[C@H](C)C[C@H](N(C)C)[C@H]2O)[C@](C)(O)C[C@@H](C)CN(C)[C@H](C)[C@@H](O)[C@]1(C)O [Azithromycin] | 0 | 0 | – | – | Quadrant (FIG. 5b) ([1]; quadrant by fibrin and LPS inhibition, HTS at 10 μM): Q4; inhibition at 10 µM [2, 12]: 11%; inhibition at 10 µM [4, 13]: -16%
15 | [H-].[Li+] [Lithium hydride] | – | – | Q4 | – | LPS % inhibition [2]: 20%; Fibrin % cell toxicity (primary rat microglia [3]): 1%; Fibrin % inhibition [4]: −6%; LPS % cell toxicity (primary rat microglia [5]): 0%
16 | CC[N+](C)(C)Cc1ccccc1Br [Bretylium] | 0 | 0 | Q4 | -26 | inhibition at 10 µM [2, 9]: -9%
17 | Cc1cc(C)nc(NS(=O)(=O)c2ccc(N)cc2)n1 [Sulfamethazine] | 0 | 0 | – | – | Quadrant (FIG. 5b) [1, 6]: Q4; inhibition at 10 µM [2, 7]: 14%; inhibition at 10 µM [4, 8]: -9%
